In ChEMBL document CHEMBL1255475, “Mutant prevention concentrations of four carbapenems against gram-negative rods” (2010):
Converted amounts (≈) assume the structure as drawn.

How the values were obtained:
[1] = system: Acinetobacter baumannii; test: Antibacterial activity against Acinetobacter baumannii A892 assessed as mutant prevention concentration after overnight incubation; type: functional
[2] = system: Escherichia coli; test: Antibacterial activity against beta-lactamase-negative Escherichia coli E425 incubated up to 7 days by agar dilution method; type: functional; settings: E425, 168 h
[3] = system: Escherichia coli; test: Ratio of mutant prevention concentration to minimum Inhibitory concentration for beta-lactamase-negative Escherichia coli E344; type: functional
[4] = system: Escherichia coli; test: Ratio of mutant prevention concentration to minimum Inhibitory concentration for beta-lactamase-negative Escherichia coli E345; type: functional
[5] = system: Escherichia coli; test: Ratio of mutant prevention concentration to minimum Inhibitory concentration for beta-lactamase-negative Escherichia coli E347; type: functional
[6] = system: Escherichia coli; test: Ratio of mutant prevention concentration to minimum Inhibitory concentration for beta-lactamase-negative Escherichia coli E348; type: functional
[7] = system: Escherichia coli; test: Ratio of mutant prevention concentration to minimum Inhibitory concentration for beta-lactamase-negative Escherichia coli E409; type: functional
[8] = system: Escherichia coli; test: Ratio of mutant prevention concentration to minimum Inhibitory concentration for beta-lactamase-positive ESBL-positive Escherichia coli E458; type: functional
[9] = system: Escherichia coli; test: Ratio of mutant prevention concentration to minimum Inhibitory concentration for beta-lactamase-positive ESBL-negative Escherichia coli E412; type: functional
[10] = system: Escherichia coli; test: Ratio of mutant prevention concentration to minimum Inhibitory concentration for beta-lactamase-positive ESBL-positive Escherichia coli E452; type: functional
[11] = system: Escherichia coli; test: Ratio of mutant prevention concentration to minimum Inhibitory concentration for beta-lactamase-positive ESBL-positive Escherichia coli E456; type: functional
[12] = system: Escherichia coli; test: Ratio of mutant prevention concentration to minimum Inhibitory concentration for beta-lactamase-positive ESBL-positive Escherichia coli E465; type: functional
[13] = system: Escherichia coli; test: Ratio of mutant prevention concentration to minimum Inhibitory concentration for beta-lactamase-positive ESBL-negative Escherichia coli E483; type: functional
[14] = system: Escherichia coli; test: Ratio of mutant prevention concentration to minimum Inhibitory concentration for beta-lactamase-positive ESBL-negative Escherichia coli E484; type: functional
[15] = system: Klebsiella pneumoniae; test: Ratio of mutant prevention concentration to minimum Inhibitory concentration for beta-lactamase-negative Klebsiella pneumoniae E360; type: functional
[16] = system: Klebsiella pneumoniae; test: Ratio of mutant prevention concentration to minimum Inhibitory concentration for beta-lactamase-positive ESBL-negative Klebsiella pneumoniae E509; type: functional
[17] = system: Klebsiella pneumoniae; test: Ratio of mutant prevention concentration to minimum Inhibitory concentration for beta-lactamase-positive ESBL-negative Klebsiella pneumoniae E472; type: functional
[18] = system: Klebsiella pneumoniae; test: Ratio of mutant prevention concentration to minimum Inhibitory concentration for beta-lactamase-positive ESBL-negative Klebsiella pneumoniae E474; type: functional
[19] = system: Klebsiella pneumoniae; test: Ratio of mutant prevention concentration to minimum Inhibitory concentration for beta-lactamase-positive ESBL-negative Klebsiella pneumoniae E481; type: functional
[20] = system: Klebsiella pneumoniae; test: Ratio of mutant prevention concentration to minimum Inhibitory concentration for beta-lactamase-negative Klebsiella pneumoniae E420; type: functional
[21] = system: Klebsiella pneumoniae; test: Ratio of mutant prevention concentration to minimum Inhibitory concentration for beta-lactamase-positive ESBL-positive Klebsiella pneumoniae E453; type: functional
[22] = system: Klebsiella pneumoniae; test: Ratio of mutant prevention concentration to minimum Inhibitory concentration for beta-lactamase-positive ESBL-positive Klebsiella pneumoniae E457; type: functional
[23] = system: Pseudomonas aeruginosa; test: Antibacterial activity against Pseudomonas aeruginosa P373 incubated up to 7 days by agar dilution method; type: functional; settings: P373, 168 h
[24] = system: Pseudomonas aeruginosa; test: Antibacterial activity against Pseudomonas aeruginosa P320 incubated up to 7 days by agar dilution method; type: functional; settings: P320, 168 h
[25] = system: Pseudomonas aeruginosa; test: Antibacterial activity against Pseudomonas aeruginosa P327 incubated up to 7 days by agar dilution method; type: functional; settings: P327, 168 h
[26] = system: Pseudomonas aeruginosa; test: Antibacterial activity against Pseudomonas aeruginosa P334 incubated up to 7 days by agar dilution method; type: functional; settings: P334, 168 h
[27] = system: Pseudomonas aeruginosa; test: Antibacterial activity against Pseudomonas aeruginosa P328 incubated up to 7 days by agar dilution method; type: functional; settings: P328, 168 h
[28] = system: Pseudomonas aeruginosa; test: Antibacterial activity against Pseudomonas aeruginosa P353 incubated up to 7 days by agar dilution method; type: functional; settings: P353, 168 h
[29] = system: Pseudomonas aeruginosa; test: Antibacterial activity against Pseudomonas aeruginosa P365 incubated up to 7 days by agar dilution method; type: functional; settings: P365, 168 h
[30] = system: Pseudomonas aeruginosa; test: Antibacterial activity against Pseudomonas aeruginosa P349 incubated up to 7 days by agar dilution method; type: functional; settings: P349, 168 h
[31] = system: Pseudomonas aeruginosa; test: Antibacterial activity against Pseudomonas aeruginosa P363 incubated up to 7 days by agar dilution method; type: functional; settings: P363, 168 h
[32] = system: Acinetobacter baumannii; test: Antibacterial activity against Acinetobacter baumannii A848 incubated up to 7 days by agar dilution method; type: functional; settings: A848, 168 h
[33] = system: Acinetobacter baumannii; test: Antibacterial activity against Acinetobacter baumannii A897 incubated up to 7 days by agar dilution method; type: functional; settings: A897, 168 h
[34] = system: Acinetobacter baumannii; test: Antibacterial activity against Acinetobacter baumannii A929 incubated up to 7 days by agar dilution method; type: functional; settings: A929, 168 h
[35] = system: Acinetobacter baumannii; test: Antibacterial activity against Acinetobacter baumannii A885 incubated up to 7 days by agar dilution method; type: functional; settings: A885, 168 h
[36] = system: Acinetobacter baumannii; test: Antibacterial activity against Acinetobacter baumannii A894 incubated up to 7 days by agar dilution method; type: functional; settings: A894, 168 h
[37] = system: Acinetobacter baumannii; test: Antibacterial activity against Acinetobacter baumannii A903 incubated up to 7 days by agar dilution method; type: functional; settings: A903, 168 h
[38] = system: Acinetobacter baumannii; test: Antibacterial activity against Acinetobacter baumannii A851 incubated for 24 h by agar dilution method; settings: A851, 24 h
[39] = system: Acinetobacter baumannii; test: Antibacterial activity against Acinetobacter baumannii A867 incubated for 24 h by agar dilution method; settings: A867, 24 h
[40] = system: Acinetobacter baumannii; test: Antibacterial activity against Acinetobacter baumannii A911 incubated for 24 h by agar dilution method; settings: A911, 24 h
[41] = system: Acinetobacter baumannii; test: Antibacterial activity against Acinetobacter baumannii A892 incubated for 24 h by agar dilution method; settings: A892, 24 h
[42] = system: Acinetobacter baumannii; test: Antibacterial activity against Acinetobacter baumannii A849 incubated for 24 h by agar dilution method; settings: A849, 24 h
[43] = system: Acinetobacter baumannii; test: Antibacterial activity against Acinetobacter baumannii A910 incubated for 24 h by agar dilution method; settings: A910, 24 h
[44] = system: Acinetobacter baumannii; test: Antibacterial activity against Acinetobacter baumannii A884 incubated for 24 h by agar dilution method; settings: A884, 24 h
[45] = system: Acinetobacter baumannii; test: Antibacterial activity against Acinetobacter baumannii A896 incubated for 24 h by agar dilution method; settings: A896, 24 h
[46] = system: Acinetobacter baumannii; test: Antibacterial activity against Acinetobacter baumannii A908 incubated for 24 h by agar dilution method; settings: A908, 24 h
[47] = system: Acinetobacter baumannii; test: Antibacterial activity against Acinetobacter baumannii A898 incubated for 24 hrs by agar dilution method; settings: A898, 24 h

C[C@@H](O)[C@H]1C(=O)N2C(C(=O)O)=C(SCCNC=N)C[C@H]12 [IMIPENEM ANHYDROUS]
MPC [1]: 64 µg/mL

C[C@@H](O)[C@H]1C(=O)N2C(C(=O)O)=C(S[C@@H]3CN[C@H](C(=O)Nc4cccc(C(=O)O)c4)C3)[C@H](C)[C@H]12
MIC [2]: 0.008 µg/mL (≈ 0.0168 µM)
Ratio [3]: 4
Ratio [4]: 4
Ratio [5]: 4
Ratio [6]: 4
Ratio [7]: 8
Ratio [8]: 16
Ratio [9]: 16
Ratio [10]: 8
Ratio [11]: 16
Ratio [12]: >16
Ratio [13]: 16
Ratio [14]: 16
Ratio [15]: 4
Ratio [16]: 4
Ratio [17]: 8
Ratio [18]: 8
Ratio [19]: 2
Ratio [20]: 4
Ratio [21]: 2
Ratio [22]: 4

C[C@@H](O)[C@H]1C(=O)N2C(C(=O)O)=C(S[C@@H]3CN[C@H](C(=O)N(C)C)C3)[C@H](C)[C@H]12 [MEROPENEM]
MIC [23]: 0.5 µg/mL (≈ 1.3 µM)
MIC [24]: 0.5 µg/mL (≈ 1.3 µM)
MIC [25]: 0.25 µg/mL (≈ 0.652 µM)
MIC [26]: 0.25 µg/mL (≈ 0.652 µM)
MIC [27]: 2 µg/mL (≈ 5.22 µM)
MIC [28]: 2 µg/mL (≈ 5.22 µM)
MIC [29]: 1 µg/mL (≈ 2.61 µM)
MIC [30]: 1 µg/mL (≈ 2.61 µM)
MIC [31]: 0.5 µg/mL (≈ 1.3 µM)
MIC [32]: 8 µg/mL (≈ 20.9 µM)
MIC [33]: 0.5 µg/mL (≈ 1.3 µM)
MIC [34]: 2 µg/mL (≈ 5.22 µM)
MIC [35]: 2 µg/mL (≈ 5.22 µM)
MIC [36]: 1 µg/mL (≈ 2.61 µM)
MIC [37]: 2 µg/mL (≈ 5.22 µM)
MIC [38]: 4 µg/mL (≈ 10.4 µM)
MIC [39]: 8 µg/mL (≈ 20.9 µM)
MIC [40]: 4 µg/mL (≈ 10.4 µM)
MIC [41]: 8 µg/mL (≈ 20.9 µM)
MIC [42]: 8 µg/mL (≈ 20.9 µM)
MIC [43]: 1 µg/mL (≈ 2.61 µM)
MIC [44]: 4 µg/mL (≈ 10.4 µM)
MIC [45]: 1 µg/mL (≈ 2.61 µM)
MIC [46]: 1 µg/mL (≈ 2.61 µM)
MIC [47]: 2 µg/mL (≈ 5.22 µM)

C[C@@H](O)[C@H]1C(=O)N2C(C(=O)O)=C(S[C@@H]3CN[C@H](CNS(N)(=O)=O)C3)[C@H](C)[C@H]12 [DORIPENEM]
MIC [23]: 0.5 µg/mL (≈ 1.19 µM)
MIC [24]: 0.25 µg/mL (≈ 0.595 µM)
MIC [25]: 0.25 µg/mL (≈ 0.595 µM)
MIC [26]: 0.125 µg/mL (≈ 0.297 µM)
MIC [27]: 2 µg/mL (≈ 4.76 µM)
MIC [28]: 0.5 µg/mL (≈ 1.19 µM)
MIC [29]: 0.5 µg/mL (≈ 1.19 µM)
MIC [2]: 0.03 µg/mL (≈ 0.0713 µM)
Ratio [3]: 2
Ratio [4]: 2
Ratio [5]: 2
Ratio [6]: 2
MPC [1]: 64 µg/mL
Ratio [7]: 4
Ratio [8]: 2
Ratio [9]: 4
Ratio [10]: 4
Ratio [11]: 8
Ratio [12]: 16
Ratio [13]: 8
Ratio [14]: 4
Ratio [15]: 2
Ratio [16]: >16
Ratio [17]: >16
Ratio [18]: 16
Ratio [19]: 4
Ratio [20]: 1
Ratio [21]: 2
Ratio [22]: 2
MIC [30]: 0.5 µg/mL (≈ 1.19 µM)
MIC [31]: 0.25 µg/mL (≈ 0.595 µM)
MIC [32]: 8 µg/mL (≈ 19 µM)
MIC [33]: 0.5 µg/mL (≈ 1.19 µM)
MIC [34]: 2 µg/mL (≈ 4.76 µM)
MIC [35]: 4 µg/mL (≈ 9.51 µM)
MIC [36]: 0.5 µg/mL (≈ 1.19 µM)
MIC [37]: 1 µg/mL (≈ 2.38 µM)
MIC [38]: 4 µg/mL (≈ 9.51 µM)
MIC [39]: 4 µg/mL (≈ 9.51 µM)
MIC [40]: 4 µg/mL (≈ 9.51 µM)
MIC [41]: 4 µg/mL (≈ 9.51 µM)
MIC [42]: 4 µg/mL (≈ 9.51 µM)
MIC [43]: 2 µg/mL (≈ 4.76 µM)
MIC [44]: 2 µg/mL (≈ 4.76 µM)
MIC [45]: 0.5 µg/mL (≈ 1.19 µM)
MIC [46]: 0.5 µg/mL (≈ 1.19 µM)
MIC [47]: 2 µg/mL (≈ 4.76 µM)
